What was measured:
[1] = system: cleaved caspase-3 in Jurkat cells; experiment: Cleaved caspase-3 immunoblot in Velcade-treated cells; format: cell-based, human; conditions: FIG. 9a, 9b; Jurkat and SH-SY5Y cells, 10 μM, 12 h and 24 h
Protocol: The levels of cleaved caspase-3 were determined by immunoblotting.
Specifically, wild-type MEF cells were pretreated for 1 h with 10 uM of the specified compounds, followed by 2 h treatment with 0.5 uM 5z-7-oxozeaenol and 1 ng/mL TNFα. Cell lysates were prepared and immunoblotted for cleaved-caspase 3 (CC3). Wild-type Jurkat cells were also pretreated for 1 h with 10 uM of the specified compounds, followed by 12 h treatment with 50 nM Velcade. Cell lysates were prepared and immunoblotted for cleaved-caspase 3 (CC3).

[2] = system: Beclin 1/Vps34 kinase complex; experiment: Vps34 lipid kinase assay on Beclin 1/Vps34 complex from treated HEK293T cells; format: cell-based; conditions: 10 μM, 6 h
Protocol: FIG. 6j Beclin 1/Vps34 kinase complex isolated from Flag-Beclin 1 transfected HEK293T cells treated with ICCB-19, Apt-1, or ICCB-19i (10 μM) for 6 h. PI3P kinase activity was measured by in vitro lipid kinase assay using ADP-Glo Kinase Assay Kit. Wortmannin (10 μM) was used as a control to inhibit Vps34 kinase activity. Mean±s.d. from technical quadruplicates (n=4), representative of 3 independent experiments. One-way ANOVA, post hoc Dunnett's tests. ***P=0.0003; ***P<0.001 (left to right).
WT mice (n=10, male, 8 weeks of age) were injected intravenously via the tail vein with mTNFα (9.5 μg/mouse) after an intraperitoneal injection of Apt-1 (20 mg/kg) 30 min before. Control mice (n=9) received an equal amount of vehicle 30 min before mTNFα challenge. Kaplan Meier survival curve was determined. 25. Vps34 lipid kinase assay HEK293T cells were transfected with Flag-Beclin 1 for 18 h and then treated with ICCB-19, ICCB-19i, Apt-1 (10 μM) for another 6 h. Flag-Beclin 1 was immunoprecipitated by anti-Flag to isolate Beclin 1/Vps34 complex. Immunoprecipitated beads were added with sonicated phosphatidylinositol (1 μl of 5 mg) and ATP (1 μl of 10 mM) in 30 μl reaction buffer (40 mM Tris (pH 7.5), 20 mM MgCl2, 1 mg/ml BSA) for 30 min at room temperature. […] The conversion of ATP into ADP levels was measured by an ADP-Glo Kinase Assay Kit (Promega) according to the manufacturer's instructions.

MEFs = experiment: Necroptosis of MEFs induced by TNFα/5z7/zVAD; format: cell-based, mouse; conditions: 10 μM
Protocol: The concentrations of reagents used: mTNFα: 1 ng/mL; (5Z)-7-oxozeaenol: 0.5 μM; zVAD: 20 μM; ICCB-19: 10 μM; Apt-1: 10 μM; Nec-1s: 10 μM. Mean s.d. from technical triplicates (n=3), representative of 3 independent experiments.

RIPK1 = target: T1, RIPK1 (Homo sapiens, UniProt Q13546); experiment: Activation of overexpressed Flag-RIPK1 in HEK293T cells (p-S166); format: cell-based; conditions: 10 μM, 12 h
T1 construct: expressed in transfected cells; host or cells: HEK293T
T1 sequence (Q13546 whole entry, species assumed): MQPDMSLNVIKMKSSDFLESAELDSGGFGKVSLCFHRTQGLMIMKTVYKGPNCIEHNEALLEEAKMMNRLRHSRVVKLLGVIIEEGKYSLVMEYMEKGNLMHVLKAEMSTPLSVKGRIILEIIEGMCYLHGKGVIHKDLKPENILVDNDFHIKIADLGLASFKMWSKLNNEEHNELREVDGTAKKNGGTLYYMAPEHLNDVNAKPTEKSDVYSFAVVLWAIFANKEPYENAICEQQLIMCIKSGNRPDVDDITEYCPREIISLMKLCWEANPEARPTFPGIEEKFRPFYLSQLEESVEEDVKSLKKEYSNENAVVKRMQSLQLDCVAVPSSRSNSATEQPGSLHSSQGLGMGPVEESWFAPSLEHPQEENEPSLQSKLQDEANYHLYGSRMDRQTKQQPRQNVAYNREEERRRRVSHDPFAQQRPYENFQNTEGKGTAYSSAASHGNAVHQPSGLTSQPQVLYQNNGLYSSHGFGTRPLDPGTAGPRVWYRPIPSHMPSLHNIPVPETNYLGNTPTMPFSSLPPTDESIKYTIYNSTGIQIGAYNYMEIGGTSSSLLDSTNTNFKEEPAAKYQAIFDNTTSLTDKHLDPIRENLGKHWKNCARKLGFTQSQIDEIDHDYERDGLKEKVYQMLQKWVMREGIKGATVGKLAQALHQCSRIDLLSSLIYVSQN
Protocol: The activation of RIPK1 was determined by immunoblotting using p-S166 RIPK1 antibody.

TRADD-N and TRADD-C = target: T2, TRADD-N and TRADD-C (Homo sapiens, UniProt Q15628); experiment: NanoBiT protein-protein interaction assay TRADD-N / TRADD-C; format: cell-based; conditions: 4 h
T2 construct: expression constructs encoding Flag-TRADD-N(1-179) and HA-TRADD-C(180-312); expressed in transfected cells; host or cells: HEK293T
T2 sequence (Q15628 1-179): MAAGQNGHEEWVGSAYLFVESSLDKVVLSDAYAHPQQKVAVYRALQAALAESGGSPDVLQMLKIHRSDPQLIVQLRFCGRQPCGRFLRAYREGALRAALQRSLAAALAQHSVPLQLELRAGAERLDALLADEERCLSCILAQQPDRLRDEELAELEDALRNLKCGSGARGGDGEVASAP
Protocol: Constructs were made encoding LgBiT and SmBiT fused to the N and C termini of TRADD-N and TRADD-C, respectively. HEK293T cells were transfected with these two plasmids for 24 h and then treated with indicated compounds for 4 h. The luminescence indicating the interaction of TRADD-N and TRADD-C was measured using Nano-Glo Live Cell Reagent. Mean ±s.d. from quintuplicates (n=5).
The Nano-Glo Live Cell assay kit (Promega) was used as follows: HEK293T cells were seeded at 7.5×10^3 cells per well in a white, clear-bottom 96-well plate 12 h before transfection (10 ng LgBiT-fused construct and 10 ng SmBiT-fused construct). After 24 h incubation, medium was removed and replaced with 100 μl Opti-MEM medium for 1 h at 37C. The Nano-Glo reagent was prepared as per manufacturer's instructions and added to each well immediately before the luminescence reading was taken. Luminescence was measured at 1 min intervals for 10 min on a plate reader and reported as relative light units (RLU). For quantitative comparison of LgBiT-SmBiT interactions, the peak values at the 2-3 min time point were used. Concentration of compounds used in NanoBiT assay: 10 μM (Apt-1, ICCB-19 or ICCB-19i).

MEFs, BV2 cells, BMDMs = experiment: Inflammatory responses in cells stimulated with TNFα or PAMPs; format: cell-based; conditions: 10 μM
Protocol: The protein levels of iNOS and Cox2 were determined by immunoblotting.
TNFα production was determined by ELISA.
The cells were then treated with Apt-1 (10 μM) or Nec-1s (10 μM) for 1 h and MDP (10 μg/ml) was added to cells directly and treated for 8 h. TNFα production was determined by ELISA. Mean ±s.d. from technical triplicates (n=3), representative of 3 independent experiments.

Row | SMILES | cleavage of caspase-3 downstream of Velcade-induced proteasomal stress [1] | Vps34 lipid kinase activity [2] | inhibition of necroptosis (MEFs) | inhibition of activation of overexpressed RIPK1 (RIPK1) | NanoBit interaction signal between LgBiT-TRADD-N and TRADD-C-SmBiT (TRADD-N and TRADD-C) | production of inflammatory target genes and inflammatory cytokines (MEFs, BV2 cells, BMDMs)
1 | CN1CCN=C1SC(C(=O)NC1CCCCCC1)c1ccccc1 (stereo not drawn) [Compound 30] | blocked | increased Vps34 lipid kinase activity | partially inhibited | cannot inhibit | dose-dependently reduced | reduced production
2 | O=C(CSC1=NCCN1)NC1CCCCCC1 [ICCB-19] | blocked | increased Vps34 lipid kinase activity | partially inhibited | cannot inhibit | dose-dependently reduced | reduced production

Source: patent US20230219898A1, “COMPOUNDS AND METHODS FOR BLOCKING APOPTOSIS AND INDUCING AUTOPHAGY” (President and Fellows of Harvard College, priority 2020, published 2023)
